The source of these data is ChEMBL document CHEMBL5230129, “Antibacterial activities with the structure-activity relationship of coumarin derivatives” (2020).

Values after ≈ are worked out from the molar mass of the structure shown.

What all share (type): functional
The test system of assay [1] is Staphylococcus aureus. Description: Antibacterial activity against Staphylococcus aureus assessed as inhibition of bacterial growth by broth micro dilution assay.
Assay [2] relates to Escherichia coli. The assay is described as follows: Antibacterial activity against Escherichia coli assessed as inhibition of bacterial growth by broth micro dilution assay.
Another assay deals with Bacillus. The assay is described as follows: Antibacterial activity against Bacillus assessed as inhibition of bacterial growth by broth micro dilution assay.
The subject of assay [3] is Escherichia coli. Description: Antibacterial activity against Escherichia coli SM1411 assessed as inhibition of bacterial growth incubated for 24 hrs by two-fold serial dilution method.
The test system of assay [4] is Escherichia coli. The assay is described as follows: Antibacterial activity against Escherichia coli 1411 assessed as inhibition of bacterial growth incubated for 24 hrs by two-fold serial dilution method.
The next assay concerns Pseudomonas. The assay is described as follows: Antibacterial activity against Pseudomonas assessed as zone of inhibition.
The next assay relates to Enterococcus faecalis. The assay is described as follows: Antibacterial activity against Enterococcus faecalis PCM 2673 assessed as inhibition of bacterial growth incubated for 24 hrs by microbroth dilution assay. For orientation: Broth dilution looks for growth in wells or tubes with falling amounts of substance.
Assay [5] relates to Escherichia coli. Description: Antibacterial activity against Escherichia coli ATCC 8739 assessed as inhibition of bacterial growth incubated for 24 hrs by microbroth dilution assay.
Assay [6] has as its system Staphylococcus aureus. The assay is described as follows: Antibacterial activity against Staphylococcus aureus MTCC 96 assessed as inhibition of bacterial growth incubated for 18 to 20 hrs by broth microdilution assay. The settings on record: time 18-20 hrs.
Assay [7] deals with Escherichia coli. Description: Antibacterial activity against Escherichia coli MTCC 443 assessed as inhibition of bacterial growth incubated for 18 to 20 hrs by broth microdilution assay. As to conditions: time 18-20 hrs.
Assay [8] deals with Staphylococcus aureus. The assay is described as follows: Antibacterial activity against Staphylococcus aureus assessed as zone of inhibition incubated for 3 days by cup plate agar diffusion assay. The settings on record: time 3 day. For orientation: In agar diffusion tests the substance spreads into inoculated agar from a disc or well.
The test system of a further assay is Bacillus subtilis. The assay is described as follows: Antibacterial activity against Bacillus subtilis assessed as zone of inhibition incubated for 3 days by cup plate agar diffusion assay. As to conditions: time 3 day.
The subject of assay [9] is Escherichia coli. Description: Antibacterial activity against Escherichia coli assessed as zone of inhibition incubated for 3 days by cup plate agar diffusion assay. As to conditions: time 3 day.
Assay [10] deals with Pseudomonas aeruginosa. Description: Antibacterial activity against Pseudomonas aeruginosa assessed as zone of inhibition incubated for 3 days by cup plate agar diffusion assay. The settings on record: time 3 day.
Assay [11] has as its system Escherichia coli. Description: Antibacterial activity against Escherichia coli ATCC 25922 assessed as zone of inhibition incubated for 24 hrs by paper disk method.
Assay [12] relates to Pseudomonas aeruginosa. The assay is described as follows: Antibacterial activity against Pseudomonas aeruginosa ATCC 27853 assessed as zone of inhibition incubated for 24 hrs by paper disk method.

As usually defined, the MIC is the least concentration at which growth counts as inhibited. As for `COc1ccc2oc(=O)cc(C3NNC(=O)N3)c2c1` (centres undefined), the MIC in the assay with Staphylococcus aureus [1], with Escherichia coli [2] and with Bacillus was 0.8 mg/L (≈ 3.06 µM) throughout.

As to `COc1cc(C2CC(c3cc4ccccc4oc3=O)=NN2)ccc1O` (centres undefined), the MIC with Escherichia coli [3] and with Escherichia coli [4] was 14 mg/L (≈ 41.6 µM) in each case.

Consider `Cc1ccc2c(C3NNC(=O)N3)cc(=O)oc2c1C` (centres undefined), for which the figures for the minimal inhibitory concentration (MIC) with Staphylococcus aureus [1], in the assay with Escherichia coli [2] and with Bacillus were 12.6 mg/L (≈ 48.6 µM), 25 mg/L (≈ 96.4 µM) and 3.12 mg/L (≈ 12 µM), respectively.

Take `COc1ccc2oc(=O)cc(-c3nc4ccccc4[nH]3)c2c1`: in the assay on Pseudomonas, the inhibition zone (IZ) amounted to 4 mm.

For `O=c1oc2ccccc2cc1C1=NNC(c2ccc(F)cc2)C1` (centres undefined), the MIC in the assay with Escherichia coli [3] and in the assay with Escherichia coli [4] was above 70 mg/L throughout.

For `O=c1cc(-c2nc3ccccc3[nH]2)c2cc(Br)ccc2o1`, the inhibition zone (IZ) with Pseudomonas stood at 4.8 mm.

Consider `Cc1cc(C)c2c(C3NNC(=O)N3)cc(=O)oc2c1` (centres undefined), for which the values for the MIC in the assay on Staphylococcus aureus [1], with Escherichia coli [2] and in the assay on Bacillus were 6.25 mg/L (≈ 24.1 µM), 50 mg/L (≈ 193 µM) and 6.25 mg/L (≈ 24.1 µM), respectively.

With `O=c1cc(OCc2cn(-c3cccc([N+](=O)[O-])c3)nn2)c2ccccc2o1`, the MIC came to 400 mg/L (≈ 1100 µM) in the assay on Enterococcus faecalis and 1600 mg/L (≈ 4390 µM) in the assay on Escherichia coli [5].

Regarding `Cc1ccc(C2CC(c3cc4ccccc4oc3=O)=NN2)cc1` (centres undefined), the MIC in the assay on Escherichia coli [3] was 18 mg/L (≈ 59.1 µM); with Escherichia coli [4] it was 16 mg/L (≈ 52.6 µM).

`Cc1cc(=O)oc2cc(OC(=O)CNC3N=C(c4ccc(F)cc4)C=C(c4ccc(Cl)cc4)S3)c([N+](=O)[O-])cc12` (centres undefined): the MIC with Staphylococcus aureus [6] was determined as 250 mg/L (≈ 431 µM); in the assay on Escherichia coli [7], 50 mg/L (≈ 86.2 µM).

As to `Cc1ccc2oc(=O)cc(-c3nc4ccccc4[nH]3)c2c1`, the inhibition zone (IZ) with Pseudomonas was 4.1 mm.

In the case of `COc1ccc(/C=C/C(=O)c2c(OCc3cnnn3Cc3ccccc3)ccc3c(C)cc(=O)oc23)cc1OC`, the “inhibition zone (IZ)” value in the assay on Staphylococcus aureus [8] was 32 mm; in the assay on Bacillus subtilis, 13 mm; with Escherichia coli [9] it was 31 mm; in the assay on Pseudomonas aeruginosa [10], 11 mm.

`COc1ccc(/C=C/C(=O)c2c(OCc3cnnn3Cc3ccccc3)ccc3c(C)cc(=O)oc23)cc1`: the “inhibition zone (IZ)” value with Staphylococcus aureus [8] is recorded as 28 mm; with Bacillus subtilis it was 11 mm; in the assay on Escherichia coli [9], 28 mm; in the assay on Pseudomonas aeruginosa [10] it was 9 mm.

For the compound `O=c1cc(-c2nc3ccccc3[nH]2)c2ccc3ccccc3c2o1`, the inhibition zone (IZ) with Pseudomonas was determined as 4.2 mm.

For `Cc1ccc(/C=C/C(=O)c2c(OCc3cnnn3Cc3ccccc3)ccc3c(C)cc(=O)oc23)cc1`, the “inhibition zone (IZ)” value in the assay on Staphylococcus aureus [8] worked out at 17 mm; with Bacillus subtilis, 6 mm; in the assay on Escherichia coli [9], 14 mm; in the assay on Pseudomonas aeruginosa [10] it was 7 mm.

Consider `COc1cc(/C=C/C(=O)c2c(OCc3cnnn3Cc3ccccc3)ccc3c(C)cc(=O)oc23)cc(OC)c1OC`, for which the “inhibition zone (IZ)” value in the assay with Staphylococcus aureus [8] turned out to be 35 mm; in the assay on Bacillus subtilis it was 15 mm; in the assay on Escherichia coli [9], 33 mm; in the assay on Pseudomonas aeruginosa [10] it was 14 mm.

Regarding `COc1ccc2c(C3NNC(=O)N3)cc(=O)oc2c1` (centres undefined), the values for the MIC in the assay with Staphylococcus aureus [1], with Escherichia coli [2] and in the assay with Bacillus were 0.8 mg/L (≈ 3.06 µM), 1.6 mg/L (≈ 6.12 µM) and 3.12 mg/L (≈ 11.9 µM), respectively.

Turning to `Cc1cc(=O)oc2cc(OC(=O)CNC3N=C(c4ccc(F)cc4)C=C(c4ccc(F)cc4)S3)c([N+](=O)[O-])cc12` (centres undefined), the figures for the MIC in the assay on Staphylococcus aureus [6] and in the assay with Escherichia coli [7] were 125 mg/L (≈ 222 µM) and 200 mg/L (≈ 355 µM), respectively.

As for `COc1ccccc1-n1cc(COc2cc(=O)oc3ccccc23)nn1`, the values for the MIC in the assay with Enterococcus faecalis and with Escherichia coli [5] were 12.5 mg/L (≈ 35.8 µM) and 1600 mg/L (≈ 4580 µM), respectively.

With `COc1ccc(-n2cc(COc3cc(=O)oc4ccccc34)nn2)cc1F`, the values for the MIC in the assay with Enterococcus faecalis and in the assay on Escherichia coli [5] were 100 mg/L (≈ 272 µM) and 200 mg/L (≈ 544 µM), respectively.

On to `Cc1cc(=O)oc2cc(OC(=O)CNC3N=C(c4ccc(F)cc4)C=C(c4ccc(O)cc4)S3)c([N+](=O)[O-])cc12` (centres undefined), for which the MIC in the assay on Staphylococcus aureus [6] and in the assay with Escherichia coli [7] was 250 mg/L (≈ 445 µM) throughout.

On to `O=C(COc1cc(=O)oc2ccccc12)N(c1ccccc1)c1ccccc1`, for which the results for the “inhibition zone (IZ)” value with Escherichia coli [11] and with Pseudomonas aeruginosa [12] were 10 mm and 12 mm, respectively.

Regarding `O=C1NNC(c2cc(=O)oc3ccc(Cl)cc23)N1` (centres undefined), the MIC in the assay with Staphylococcus aureus [1] turned out to be 25 mg/L (≈ 94.1 µM); in the assay on Escherichia coli [2], 25 mg/L (≈ 94.1 µM); with Bacillus it was 6.25 mg/L (≈ 23.5 µM).

In the case of `C[C@@H](NC(=O)COc1cc(=O)oc2ccccc12)c1ccccc1`, the “inhibition zone (IZ)” value with Escherichia coli [11] is 12 mm; with Pseudomonas aeruginosa [12], 10 mm.

With `Cc1cc(=O)oc2cc(OC(=O)CNC3N=C(c4ccc(F)cc4)C=C(c4cccc(Br)c4)S3)c([N+](=O)[O-])cc12` (centres undefined), the values for the MIC in the assay on Staphylococcus aureus [6] and with Escherichia coli [7] were 100 mg/L (≈ 160 µM) and 500 mg/L (≈ 801 µM), respectively.

Take `O=c1cc(OCc2cn(-c3ccccc3)nn2)c2ccccc2o1`: the MIC stood at 50 mg/L (≈ 157 µM) with Enterococcus faecalis and 1600 mg/L (≈ 5010 µM) with Escherichia coli [5].

For `O=C(COc1cc(=O)oc2ccccc12)NC1CCCCCC1`, the entries for the “inhibition zone (IZ)” value in the assay with Escherichia coli [11] and with Pseudomonas aeruginosa [12] were 11 mm and 10 mm, respectively.

For `O=c1cc(-c2nc3ccccc3[nH]2)c2cc(Cl)ccc2o1`, the inhibition zone (IZ) in the assay with Pseudomonas turned out to be 8 mm.

Take `Cc1ccc2oc(=O)cc(C3NNC(=O)N3)c2c1` (centres undefined): the figures for the MIC with Staphylococcus aureus [1], in the assay on Escherichia coli [2] and in the assay with Bacillus were 1.6 mg/L (≈ 6.52 µM), 0.8 mg/L (≈ 3.26 µM) and 0.8 mg/L (≈ 3.26 µM), respectively.

Turning to `Cc1ccc2c(-c3nc4ccccc4[nH]3)cc(=O)oc2c1`, in the assay with Pseudomonas, the inhibition zone (IZ) worked out at 4.1 mm.

Turning to `O=c1cc(OCc2cn(-c3ccc(F)cc3)nn2)c2ccccc2o1`, the MIC in the assay on Enterococcus faecalis came out at 400 mg/L (≈ 1190 µM); with Escherichia coli [5], 1600 mg/L (≈ 4740 µM).

`Cc1cc(=O)oc2c(C(=O)/C=C/c3ccc(Cl)cc3)c(OCc3cnnn3Cc3ccccc3)ccc12`: the “inhibition zone (IZ)” value in the assay with Staphylococcus aureus [8] is given as 25 mm; with Bacillus subtilis it was 10 mm; in the assay on Escherichia coli [9] it was 23 mm; in the assay with Pseudomonas aeruginosa [10], 8 mm.

As to `N[C@@H]1CONC1=O` [CYCLOSERINE], the MIC in the assay on Escherichia coli [3] and in the assay on Escherichia coli [4] was 16 mg/L (≈ 157 µM) each time.

Regarding `Cc1cc(=O)oc2c(C(=O)/C=C/c3ccc(F)cc3)c(OCc3cnnn3Cc3ccccc3)ccc12`, the “inhibition zone (IZ)” value was determined as 27 mm in the assay on Staphylococcus aureus [8], 11 mm in the assay on Bacillus subtilis, 27 mm in the assay with Escherichia coli [9] and 10 mm with Pseudomonas aeruginosa [10].

For the compound `O=c1oc2ccccc2cc1C1=NNC(c2ccc(Br)cc2)C1` (centres undefined), the MIC with Escherichia coli [3] and in the assay with Escherichia coli [4] was above 70 mg/L in each case.

Turning to `Cc1ccc2c(C3NNC(=O)N3)cc(=O)oc2c1` (centres undefined), the MIC with Staphylococcus aureus [1], with Escherichia coli [2] and in the assay with Bacillus was 1.6 mg/L (≈ 6.52 µM) in each case.

On to `C[C@@H](NC(=O)COc1cc(=O)oc2ccccc12)c1cccc2ccccc12`, for which the “inhibition zone (IZ)” value with Escherichia coli [11] is listed as 12 mm; in the assay with Pseudomonas aeruginosa [12], 14 mm.

For the compound `O=c1oc2ccccc2cc1C1=NNC(c2ccc(-c3ccccc3)c(-c3ccccc3)c2)C1` (centres undefined), the MIC in the assay on Escherichia coli [3] and with Escherichia coli [4] was above 70 mg/L throughout.

Consider `Cc1cc(=O)oc2cc(OC(=O)CNC3N=C(c4ccc(F)cc4)C=C(c4cccc(Oc5ccccc5)c4)S3)c([N+](=O)[O-])cc12` (centres undefined), for which the MIC in the assay on Staphylococcus aureus [6] came to 200 mg/L (≈ 314 µM); in the assay on Escherichia coli [7], 250 mg/L (≈ 392 µM).

Take `CC1(C)S[C@@H]2[C@H](NC(=O)[C@H](N)c3ccc(O)cc3)C(=O)N2[C@H]1C(=O)O` [AMOXICILLIN]: the “inhibition zone (IZ)” value with Staphylococcus aureus [8] is 30 mm; in the assay on Bacillus subtilis it was 12 mm; in the assay on Escherichia coli [9], 30 mm; with Pseudomonas aeruginosa [10], 10 mm.

As to `Cc1cc(=O)oc2c(C(=O)/C=C/c3ccccc3)c(OCc3cnnn3Cc3ccccc3)ccc12`, the “inhibition zone (IZ)” value in the assay on Staphylococcus aureus [8] stood at 11 mm; in the assay with Bacillus subtilis, 8 mm; with Escherichia coli [9] it was 10 mm; in the assay with Pseudomonas aeruginosa [10], 4 mm.
